# Experimental data reported in ChEMBL document CHEMBL5500324, “The potential of marine-derived piperazine alkaloids: Sources, structures and bioactivities” (Eur J Med Chem, 2024).
# Legend:
# [1] = Cytotoxicity against Sf9 cells assessed as inhibition of cell growth measured after 24 hrs by MTT assay; type: toxicity, cell-based; details: Spodoptera frugiperda
# MKN-1 [2] = test: Cytotoxicity against human MKN-1 cells assessed as reduction in cell viability; type: functional, cell-based
# MKN-1 [3] = test: Antiproliferative activity against human MKN-1 cells assessed as inhibition of cell proliferation by CCK8 assay; type: functional, cell-based
# P388 [4] = test: Cytotoxicity against mouse P388 cells assessed as inhibition of cell growth incubated for 72 hrs by MTT assay; type: functional, cell-based; details: P388, 72 h
# HL-60 [5] = test: Cytotoxicity against human HL-60 cells assessed as reduction in cell growth measured for 72 hrs by MTT assay; type: functional, cell-based; details: HL-60, 72 h
# L1210 = test: Cytotoxicity against mouse L1210 cells assessed as reduction in cell growth measured after 72 hrs by MTT assay; type: functional, cell-based; details: L1210, 72 h
# P388 [6] = test: Cytotoxicity against mouse P388 cells assessed as reduction in cell growth; type: functional; details: read-out: ED50 (the source's name)
# NCI-H460 [7] = test: Cytotoxicity against human NCI-H460 cells assessed as reduction in cell growth by MTT assay; type: functional, cell-based
# HepG2 [8] = test: Cytotoxicity against human HepG2 cells assessed as reduction in cell growth by MTT assay; type: functional, cell-based
# MCF7 [9] = test: Cytotoxicity against human MCF7 cells assessed as reduction in cell growth incubated for 48 hrs by MTT assay; type: functional, cell-based; details: MCF7, 48 h
# [10] = Cytotoxicity against mouse FM3A tsFT210 cells assessed as inhibition of cell growth; type: functional, cell-based
# U-937 [11] = test: Cytotoxicity against human U-937 cells assessed as reduction in cell viability incubated for 72 hrs by MTT assay; type: functional, cell-based; details: U-937, 72 h
# PC-3 [12] = test: Cytotoxicity against human PC-3 cells assessed as reduction in cell viability measured after 72 hrs by MTT assay; type: functional, cell-based; details: PC-3, 72 h
# HEK293 = test: Cytotoxicity against HEK293 cells assessed as cell growth inhibition; type: functional, cell-based; details: Homo sapiens
# HCT-116 [13] = test: Cytotoxicity against human HCT-116 cells assessed as reduction in cell viability incubated for 24 hrs by MTT assay; type: functional, cell-based; details: HCT-116, 24 h
# RKO = test: Cytotoxicity against human RKO cells assessed as inhibition of cell growth measured after 48 hrs by MTT assay; type: functional, cell-based
# HCT-116 [14] = test: Cytotoxicity against human HCT-116 cells assessed as reduction in cell viability incubated for 72 hrs by MTT assay; type: functional, cell-based; details: HCT-116, 72 h
# SF-268 [15] = test: Cytotoxicity against human SF-268 cells assessed as reduction in cell growth incubated for 48 hrs by SRB assay; type: functional, cell-based; details: SF-268, 48 h
# MCF7 [16] = test: Cytotoxicity against human MCF7 cells assessed as reduction in cell growth incubated for 48 hrs by SRB assay; type: functional, cell-based; details: MCF7, 48 h
# NCI-H460 [17] = test: Cytotoxicity against human NCI-H460 cells assessed as reduction in cell growth incubated for 48 hrs by SRB assay; type: functional, cell-based; details: NCI-H460, 48 h
# HepG2 [18] = test: Cytotoxicity against human HepG2 cells assessed as reduction in cell growth incubated for 48 hrs by SRB assay; type: functional, cell-based; details: HepG2, 48 h
# SF-268 [19] = test: Cytotoxicity against human SF-268 cells assessed as reduction in cell growth incubated for 72 hrs by SRB assay; type: functional, cell-based; details: SF-268, 72 h
# MCF7 [20] = test: Cytotoxicity against human MCF7 cells assessed as reduction in cell growth incubated for 72 hrs by SRB assay; type: functional, cell-based; details: MCF7, 72 h
# HepG2 [21] = test: Cytotoxicity against human HepG2 cells assessed as reduction in cell growth incubated for 72 hrs by SRB assay; type: functional, cell-based; details: HepG2, 72 h
# NCI-H460 [22] = test: Cytotoxicity against human NCI-H460 cells assessed as reduction in cell growth incubated for 72 hrs by SRB assay; type: functional, cell-based; details: NCI-H460, 72 h
# U-937 [23] = test: Cytotoxicity against human U-937 cells assessed as reduction in cell viability; type: functional, cell-based
# PC-3 [24] = test: Cytotoxicity against human PC-3 cells assessed as reduction in cell viability; type: functional, cell-based
# HeLa [25] = test: Cytotoxicity against human HeLa cells assessed as reduction in cell viability by MTT assay; type: functional, cell-based
# P388 [26] = test: Cytotoxicity against mouse P388 cells assessed as reduction in cell viability by SRB assay; type: functional, cell-based
# [27] = Cytotoxicity against human A2780cis cells assessed as inhibition of cell growth incubated for 72 hrs by SRB assay; type: functional, cell-based
# A549 [28] = test: Cytotoxicity against human A549 cells assessed as reduction in cell growth incubated for 72 hrs by SRB assay; type: functional, cell-based; details: A549, 72 h
# Bel-7402 [29] = test: Cytotoxicity against human Bel-7402 cells assessed as reduction in cell growth incubated for 72 hrs by SRB assay; type: functional, cell-based; details: Bel-7402, 72 h
# HL-60 [30] = test: Cytotoxicity against human HL-60 cells assessed as reduction in cell growth incubated for 72 hrs by SRB assay; type: functional, cell-based; details: HL-60, 72 h
# K562 = test: Cytotoxicity against human K562 cells assessed as reduction in cell viability by MTT assay; type: functional, cell-based
# HeLa [31] = test: Cytotoxicity against human HeLa cells assessed as reduction in cell growth measured after 24 hrs by MTT assay; type: functional, cell-based
# [32] = Antitumor activity against human A375.S2 cells assessed as cell growth inhibition; type: functional, cell-based
# HeLa [33] = test: Antitumor activity against human HeLa cells assessed as inhibition of cell growth by MTT assay; type: functional, cell-based
# P388 [34] = test: Antitumor activity against mouse P388 cells assessed as cell growth inhibition; type: functional, cell-based
# A549 [35] = test: Anticancer activity against human A549 cells assessed as reduction in cell growth; type: functional, cell-based
# HL-60 [36] = test: Anticancer activity against human HL-60 cells assessed as inhibition of cell growth measured after 24 hrs by CCK-8 assay; type: functional, cell-based; details: HL-60, 24 h
# Bel-7402 [37] = test: Anticancer activity against human Bel-7402 cells assessed as reduction in cell growth measured for 24 hrs by MTT assay; type: functional, cell-based; details: Bel-7402, 24 h
smiles,measurement,setting,value
CS[C@@]1(Cc2ccccc2)NC(=O)[C@](O)(Cc2ccccc2)NC1=O,IC50 at 24 h,[1],700 nM
C=CC(C)(C)c1[nH]c2ccccc2c1/C=c1\[nH]c(=O)c(=C)[nH]c1=O [NEOECHINULIN B],IC50,MKN-1 [2],4600 nM
same,IC50,MKN-1 [3],20700 nM
CSC12NC(=O)C(Cc3ccc(OCC=C(C)C)cc3)(NC1=O)[C@H]1C(=O)O[C@H](C)C/C=C/C(=O)O[C@H](C)C[C@@H](O)C(=O)[C@H]12 (stereo partly specified),IC50,P388 [4],6800 nM
same,IC50,HL-60 [5],2200 nM
same,IC50,L1210,11700 nM
CN1C(=O)[C@@]23SS[C@]1(C)C(=O)N2[C@H]1Nc2ccccc2[C@@]1(c1c[nH]c2ccccc12)[C@@H]3O,EC50,P388 [6],2.4 µg/mL
same,IC50,NCI-H460 [7],230 nM
same,IC50,HepG2 [8],530 nM
same,IC50,MCF7 [9],230 nM
CN1C(=O)[C@]23CC4=CC=C[C@H](O)[C@H]4N2C(=O)[C@@]1(CO)SS3 [GLIOTOXIN],IC50,[10],0.15 µg/mL
same,IC50,U-937 [11],520 nM
same,IC50,PC-3 [12],15900 nM
same,IC50,HEK293,1580 nM
same,IC50,HCT-116 [13],1240 nM
same,IC50,RKO,800 nM
same,IC50,HCT-116 [14],410 nM
same,IC50,SF-268 [15],240 nM
same,IC50,MCF7 [16],80 nM
same,IC50,NCI-H460 [17],240 nM
same,IC50,HepG2 [18],210 nM
same,IC50,SF-268 [19],240 nM
same,IC50,MCF7 [20],80 nM
same,IC50,HepG2 [21],240 nM
same,IC50,NCI-H460 [22],210 nM
same,IC50,U-937 [23],200 nM
same,IC50,PC-3 [24],390 nM
CS[C@@H]1C(=O)N[C@](Cc2ccc(OCC=C(C)C)cc2)(SC)C(=O)N1C,IC50,HeLa [25],4200 nM
C=CC(C)(C)c1[nH]c2ccccc2c1/C=C1\NC(=O)[C@]2(C[C@H](C)C=C[C@@H]2CCc2c(O)cc(CC=C(C)C)c(O)c2C=O)NC1=O,IC50,P388 [26],1830 nM
O=C1N2[C@H]3C(=CC=C[C@@H]3O)C[C@]23SS[C@]12C[C@H]1[C@@H]([C@@H](O)C=C[C@@H]1O)N2C3=O,IC50,[27],661 nM
C=CC(C)(C)[C@@]12C[C@@]3(OC)C(=O)N/C(=C/c4cn(C(C)(C)CC(C)=O)cn4)C(=O)N3[C@]1(C)Nc1ccccc12,IC50,A549 [28],42500 nM
same,IC50,Bel-7402 [29],> 50000 nM
same,IC50,HL-60 [30],36600 nM
CS[C@@H]1C(=O)N(C)/C(=C/c2ccc(OCC=C(C)C)cc2)C(=O)N1C,IC50,K562,12700 nM
O=C1N[C@@H](C[C@@]2(O)c3ccccc3N3C(=O)C[C@@H](c4ccccc4)N[C@H]32)C(=O)N[C@H]1Cc1ccccc1,IC50,HeLa [31],8.4 µg/mL
CC(C)=CCC/C(C)=C/COc1ccc(C[C@@H]2NC(=O)[C@H](C)NC2=O)cc1,IC50,[32],4600 nM
same,IC50,HeLa [33],3400 nM
same,IC50,P388 [34],2860 nM
same,IC50,A549 [35],1370 nM
same,IC50,HL-60 [36],1730 nM
same,IC50,Bel-7402 [37],3200 nM
